The numbers were not newly measured in patent publication US6369046B1, “Methods for treating dementia” (The Board of Trustees of the Leland Stanford Junior …, priority 1998, dated 2002), which cites them from elsewhere.

For data set [1], the target named is T1, glucocorticoid (GR) receptor (Homo sapiens, UniProt P04150).
T1 sequence (P04150 1-777): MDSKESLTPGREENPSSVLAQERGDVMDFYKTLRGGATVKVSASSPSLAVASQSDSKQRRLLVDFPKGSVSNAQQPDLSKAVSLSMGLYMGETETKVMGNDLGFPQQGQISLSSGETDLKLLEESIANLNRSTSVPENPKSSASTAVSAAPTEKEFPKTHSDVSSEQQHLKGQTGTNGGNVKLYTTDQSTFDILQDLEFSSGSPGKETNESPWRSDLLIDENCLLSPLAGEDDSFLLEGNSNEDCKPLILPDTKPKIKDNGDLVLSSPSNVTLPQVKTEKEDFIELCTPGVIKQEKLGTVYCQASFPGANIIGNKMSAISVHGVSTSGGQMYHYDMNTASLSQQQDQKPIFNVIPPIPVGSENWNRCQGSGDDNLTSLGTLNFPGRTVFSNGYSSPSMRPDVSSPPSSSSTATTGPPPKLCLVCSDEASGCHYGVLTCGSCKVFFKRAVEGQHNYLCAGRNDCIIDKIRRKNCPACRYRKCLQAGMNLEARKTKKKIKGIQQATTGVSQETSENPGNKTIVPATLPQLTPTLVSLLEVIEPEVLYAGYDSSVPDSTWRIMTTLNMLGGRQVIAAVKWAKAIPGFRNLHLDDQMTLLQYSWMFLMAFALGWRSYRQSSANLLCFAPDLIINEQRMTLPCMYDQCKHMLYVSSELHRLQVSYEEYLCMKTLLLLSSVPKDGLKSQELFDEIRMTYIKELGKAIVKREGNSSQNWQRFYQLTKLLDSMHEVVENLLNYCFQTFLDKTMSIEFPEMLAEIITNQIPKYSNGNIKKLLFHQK
To be noted: Bocquel (1993) for RU009; cited from earlier work.

The target in data set [2] is T2, progesterone receptor (Homo sapiens, UniProt P06401).
T2 sequence (P06401 1-933): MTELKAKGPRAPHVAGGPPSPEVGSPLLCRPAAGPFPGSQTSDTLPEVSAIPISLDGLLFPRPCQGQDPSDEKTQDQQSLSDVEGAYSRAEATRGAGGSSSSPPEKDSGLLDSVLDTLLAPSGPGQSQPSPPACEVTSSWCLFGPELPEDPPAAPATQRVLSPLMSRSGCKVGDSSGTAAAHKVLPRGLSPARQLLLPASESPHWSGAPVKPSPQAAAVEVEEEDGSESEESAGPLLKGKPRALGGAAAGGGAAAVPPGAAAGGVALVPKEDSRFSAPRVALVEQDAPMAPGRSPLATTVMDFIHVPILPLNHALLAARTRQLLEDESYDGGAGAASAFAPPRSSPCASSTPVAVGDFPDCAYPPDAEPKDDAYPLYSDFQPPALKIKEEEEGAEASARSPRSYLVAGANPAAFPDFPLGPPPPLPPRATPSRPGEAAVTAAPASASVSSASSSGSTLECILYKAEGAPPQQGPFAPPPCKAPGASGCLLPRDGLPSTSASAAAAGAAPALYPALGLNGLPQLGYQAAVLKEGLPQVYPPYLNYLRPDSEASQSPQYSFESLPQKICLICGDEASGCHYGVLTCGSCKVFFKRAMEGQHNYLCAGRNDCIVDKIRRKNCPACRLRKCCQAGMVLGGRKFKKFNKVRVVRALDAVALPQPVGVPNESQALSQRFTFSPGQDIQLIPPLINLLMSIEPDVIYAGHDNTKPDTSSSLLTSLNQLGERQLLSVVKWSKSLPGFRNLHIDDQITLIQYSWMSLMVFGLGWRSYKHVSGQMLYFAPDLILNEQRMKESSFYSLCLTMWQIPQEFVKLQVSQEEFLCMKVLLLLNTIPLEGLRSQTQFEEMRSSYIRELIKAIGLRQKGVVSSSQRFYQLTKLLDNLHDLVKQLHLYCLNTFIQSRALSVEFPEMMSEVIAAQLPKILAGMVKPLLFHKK
The conditions noted are these: cited from earlier work.

The conditions of data set [3]: Kawai (1989) supra; cited from earlier work.

Structures are written as SMILES.

Turning to `CC#C[C@]1(O)CC[C@H]2[C@@H]3CCC4=CC(=O)CCC4=C3[C@@H](c3ccc(OCCN(C)C)cc3)C[C@@]21C` [RU009, 11-beta-(4-dimethyl-aminoethoxyphenyl)-1 7-alpha-(propynyl-17 beta-hydroxy-4,9-estradien-3-one)], the GR antagonism entry in data set [1] was “GR antagonist effects”.
Regarding `CC#C[C@]1(O)CC[C@H]2[C@@H]3CCC4=CC(=O)CCC4=C3[C@@H](c3ccc(N(C)C)cc3)C[C@@]21C` [mifepristone, 17-beta-hydroxy-11-beta-(4-dimethyl-aminophenyl)-17-alpha-(1-propynyl)-estra-4,9-dien-3-one], the progesterone receptor antagonism result in data set [2] is “powerful antagonist”. For the same compound, in data set [1], the GR antagonism entry is “powerful antagonist”. Besides, in data set [3], the “fraction of the daily dose excreted in the urine” value was “less than 0.5 % of the daily dose”.
